In patent publication US20110124607A1, “COMPOSITION FOR REGULATION CELLULAR SENESCENCE COMPRISING LYSOPHOSPHATIDIC ACID AND INHIBITOR OF ADENYLYL CYCLASE AS ACTIVE INGREDIENTS” (priority 2008, published 2011):
Like-named read-outs stand apart in the source and are kept apart here.

Columns and labels:
LKB1 = assay: Immuno-blotting of LKB1; assay type: cell-based, human; conditions: 1, 2, 4 days
Procedure: FIG. 8 is a set of photographs illustrating the effects of LPA and ACI on LKB1 phosphorylation in senescent cells. Precisely, sub-cultured young cells (PD 18) and senescent cells (PD64) were treated with 30 μM of LPA or 300 μM of LPA and ACI singly or together. After culturing the cells for 1, 2, and 4 days, proteins were extracted from the cultured cells and the levels of LKB1, p-Ser431-LKB1 and β-actin were quantified by immuno-blotting using 45 μg of the protein.
To analyse protein expression, human fibroblasts were lysed in cold lysis buffer (25 mM Hepes, pH 8.0, 150 mM NaCl, 1 mM EDTA, 1 mM Na3VO4, 1 mM NaF, 1% Triton X-100 and protease inhibitors), followed by centrifugation at 4° C. at 9,000 rpm for 10 minutes to obtain supernatant. Protein in the extract was quantified […]. SDS-PAGE electrophoresis was performed with equal amount of the protein (45 μg) to separate. The separated protein was transferred onto NC membrane from the electrophoresis gel. Non-specific protein binding was blocked by blocking the blot (transferred NC membrane) using TTBS […] containing 5% skim milk for one hour. Then, antigen-antibody reaction was induced with diluted primary antibody at 4° C. for overnight. […]

PKA = PKA activity in cells; assay type: cell-based, human
[1] = tested on: senescent cells (human fibroblasts); assay: Microscope observation of morphology of senescent cells; assay type: cell-based; conditions: day 4
Procedure: In the meantime, when senescent cells were treated with ACI, p21 expression was reduced on day 2 and day 4. […] Microscope observation also confirmed that young cell like cells were increased compared with the control (untreated senescent cells are bigger in size, so that less cells can be observed under microscope, compared with treated senescent cells). […] So was cyclin D1 expression (FIG. 3B). […] Thus, when senescent cells were treated with ACI, p21 and cyclin D1 expressions were reduced and thereby DNA synthesis in senescent cell increased to induce cell proliferation.

[2] = tested on: senescent cells (human fibroblasts); assay: Cell cycle analysis by flow cytometry (S phase entry), senescent cells; assay type: cell-based; conditions: 30 μM LPA, 300 μM ACI, 1, 2, 4 days
Procedure: (§1) At this time, cell numbers regarded as significant compared with that of the control were presented in (A) and (B) (p<0.001). Cell cycle in (C) was analysed by flow cytometry. The percentage of cells entered S phase was averaged of three repeated measurements (p<0.001). Young and senescent cells were treated with 30 μM of LPA, 300 μM of ACI, LPA+ACI, 10 mM of AMPKI or 10 mM of AICAR, followed by culture for 1, 2, and 4 days. To analyze cell cycle, the cells were washed with buffer twice and then the cells were centrifuged using 0.25% trypsin, followed by fixation in cold 70% ethanol. Analysis was performed by flow cytometry (Becton Dickinson FACSorter) using […] of PI containing RNase. Cell proliferation and cAMP level were increased by LPA in senescent cells (Yeo et al., 2002). The AC inhibitor (ACI) was added to reduce cAMP which had been increased by LPA. And then, cell proliferation was investigated. Cells were cultured in serum-free medium for 2 days to arrest them in G0/G1 phase. Then, the cells were treated with LPA, ACI or LPA+ACI. Total cell number was measured on day 1, day 2 and day 4, or the cells entered into S phase were counted to evaluate cell proliferation. When young cells were treated with 300 μM of ACI, cell proliferation was reduced, compared with control (FIG. 1A). […]

[3] = tested on: young cells (human fibroblasts); assay: Cell proliferation by counting live cells (trypan blue), young cells; assay type: cell-based; conditions: serum-starved 2 days, counted day 1, 2, 4, 30 μM LPA, 300 μM ACI, 10 mM AMPKI, 10 mM AICAR
Procedure: Human fibroblasts were prepared by primary culture of foreskin of a newborn baby (Boyce and Ham, 1983). The primary culture was performed in DMEM supplemented with 10% FBS and 1% antibiotics. The protein contents of young cells from the early stage of sub-culture, with a population doubling (PD) of less than 25, were compared to those of at least PD 65-70 senescent cells. […] In senescent cells, the activity of beta-galactosidase was increased and cell proliferation was reduced (Yeo et al., 2000).
Prior to LPA and ACI treatment, cells were grown for 1-2 days to 60-70% sub-confluence in DMEM-containing culture medium, and then serum-starved to quiescence (that is Go/G1 arrest) by incubation in a serum-free medium containing 0.1% bovine serum albumin (BSA) for 2 days. Young and senescent cells were treated with LPA, ACI, LPA+ACI, AMPKI and AICAR, respectively. Live cells were measured after staining the cells with trypan blue on day 1, day 2 and day 4 to confirm cell proliferation.
Cell proliferation and cAMP level were increased by LPA in senescent cells (Yeo et al., 2002). The AC inhibitor (ACI) was added to reduce cAMP which had been increased by LPA. And then, cell proliferation was investigated. Cells were cultured in serum-free medium for 2 days to arrest them in G0/G1 phase. Then, the cells were treated with LPA, ACI or LPA+ACI. Total cell number was measured on day 1, day 2 and day 4, or the cells entered into S phase were counted to evaluate cell proliferation. When young cells were treated with 300 μM of ACI, cell proliferation was reduced, compared with control (FIG. 1A). In the meantime, when senescent cells were treated with 300 μM of ACI, cell proliferation was increased, compared with control (FIG. 1B).

[4] = tested on: young cells (human fibroblasts); assay: Cell cycle analysis by flow cytometry (S phase entry), young cells; assay type: cell-based; conditions: 30 μM LPA
Procedure: as §1

cAMP = conditions: cited from earlier work

Compound	LKB1 expression (LKB1; senescent cells, 300 μM ACI)	PKA activity (PKA; senescent cells)	PKA activity (PKA; young cells)	change of senescent cells into young cell like cells [1]	cell number entered into S phase [2]	cell proliferation (cell number) compared with control [3]	LKB1 expression (LKB1; young cells, 30 μM LPA)	S phase entry [4]	cAMP level (cAMP; senescent cells (Yeo et al., 2002))	cAMP level (cAMP; young cells (Jang et al., 2006b))
Nc1ncnc2c1ncn2C1CCCO1 (centres unmarked) [ACI, 9-(tetrahydro-2′-furyl)adenine]	reduced	completely inhibited	completely inhibited	most cells were changed into young cell like cells	increased	reduced				
lysophosphatidic acid [LPA]						increased	not changed	promotion of S phase entry	increased	down-regulated
